# Data taken from patent US5877165A, “Boronated porhyrins and methods for their use” (priority 1997, dated 1999).
# “Also recorded” adds a separate entry of the source.
# Experiments:
# [1] = Hematological, enzymatic and chemical blood analyses and weight change, mice with KHJJ mammary carcinomas (Examples 8-12, Table 2); type: in vivo, BALB/c mice; settings: 244 μg/gbw; 17 hr to 4 d
# Method: Female BALB/c mice (Taconic Farms, Germantown, N.Y.) (20-25 g) were implanted with either KHJJ or EMT-6 tumors. For KHJJ tumors, 1-3 mm^3 tumor fragments were implanted subcutaneously (s.c.) in the dorsal thorax of each mouse using an 18-gauge trocar. For EMT-6 tumors, 2.5×10^5 cells were implanted similarly using a 27-gauge needle. EMT-6 tumor cells were grown alternately in vivo and in vitro. Single-cell suspensions were prepared from mouse-grown tumors by trypsinization. These were grown in cell culture for several passages and then were frozen in 10% DMSO and stored in liquid nitrogen. Prior to implantation in mice, the cells were thawed and grown in tissue culture in Alpha-MEM with 10% FBS for several passages. […]
# Levels of glucose [GLU], blood urea nitrogen [BUN], blood creatinine [BCR], alanine transaminase [ALT], aspartate transaminase [AST], alkaline phosphatase [ALP], total protein [TPR], albumin [ALB], and creatine phosphokinase [CPK] were determined in blood plasma using a Cobas Fara II microanalysis system. Blood platelets [PLT] and white blood cells [WBC] were counted using a Serono-Baker System 9000 automated hematology microanalyzer. […]
# [2] = test system: KHJJ mammary carcinomas; assay: Boron biodistribution, mice with KHJJ mammary carcinomas (Examples 8-12, Table 2); design: species or system BALB/c mice; settings: mouse, in vivo
# Method: Female BALB/c mice (Taconic Farms, Germantown, N.Y.) (20-25 g) were implanted with either KHJJ or EMT-6 tumors. For KHJJ tumors, 1-3 mm^3 tumor fragments were implanted subcutaneously (s.c.) in the dorsal thorax of each mouse using an 18-gauge trocar. For EMT-6 tumors, 2.5×10^5 cells were implanted similarly using a 27-gauge needle. EMT-6 tumor cells were grown alternately in vivo and in vitro. Single-cell suspensions were prepared from mouse-grown tumors by trypsinization. These were grown in cell culture for several passages and then were frozen in 10% DMSO and stored in liquid nitrogen. Prior to implantation in mice, the cells were thawed and grown in tissue culture in Alpha-MEM with 10% FBS for several passages.
# Under deep halothane anesthesia leading to euthanasia, right ventricular blood was collected in Microtainer (Becton-Dickinson, Rutherford, N.J.) tubes containing EDTA for hematological analyses and boron assays of whole blood and in Microtainer™ tubes containing lithium heparin for chemical analyses and enzyme assays of blood plasma. Tumor, brain, fat, muscle, and liver tissues were sampled at necropsy for boron analyses.
# Direct current plasma-atomic emission spectroscopy [DCP-AES] (ARL/Fisons Model SS-7) was used (detection limit: 0.1 μg/ml). Samples (50-130 mg) were digested at 60° C. with sulfuric acid:nitric acid (1:1). […]
substance,measurement,setting,value
Nickel Tetracarboranylphenylporphyrin [NiTCP],"toxicity, in words",[1],non-toxic; also recorded: only slight differences in the results of blood chemical analyses between the NiTCP groups and the solvent-only control groups; also recorded: Weight loss was only observed 17 hours after the last injection of NiTCP
same,"retention of boron in tumor, in words",[2],the ability to retain the therapeutic amounts of boron in the tumor for several days
same,time before average blood boron concentration falls below 1 ppm,[2],4 days
